Test results as given in PubChem BioAssay (NCI).
Values joined by “and” are separate entries in the source; they are usually repeats but may differ in a detail not shown here. Equal entries are not always repeated.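 Values below derive from 48-hour exposures of cells grown in 96-well plates, with endpoints linearly interpolated between the two concentrations bracketing the appropriate inhibition level. GI50: concentration for 50% inhibition of growth. TGI is the concentration that stops growth completely.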

Tests used:
Test in all cases: growth of human tumour cells (NCI), 48 h
SF-268 CNS = tested on: SF-268 CNS
PC-3 prostate = tested on: PC-3 prostate
M14 melanoma = tested on: M14 melanoma
HS 578T breast = tested on: HS 578T breast
U251 CNS = tested on: U251 CNS
T-47D breast = tested on: T-47D breast
A498 renal = tested on: A498 renal
DU-145 prostate = tested on: DU-145 prostate
HOP-92 NSCLC = tested on: HOP-92 NSCLC
MALME-3M melanoma = tested on: MALME-3M melanoma

| SMILES | GI50 (SF-268 CNS) | TGI (SF-268 CNS) | GI50 (PC-3 prostate) | TGI (PC-3 prostate) | GI50 (M14 melanoma) | TGI (M14 melanoma) | GI50 (HS 578T breast) [µM] | TGI (HS 578T breast) [µM] | GI50 (U251 CNS) | TGI (U251 CNS) | GI50 (T-47D breast) | TGI (T-47D breast) | GI50 (A498 renal) | TGI (A498 renal) | GI50 (DU-145 prostate) | TGI (DU-145 prostate) | GI50 (HOP-92 NSCLC) [µM] | TGI (HOP-92 NSCLC) | GI50 (MALME-3M melanoma) [µM] | TGI (MALME-3M melanoma) |
| --- | --- | --- | --- | --- | --- | --- | --- | --- | --- | --- | --- | --- | --- | --- | --- | --- | --- | --- | --- | --- |
| CCOC(=O)Cc1csc(NC(=O)C(OC(=O)c2ccc(N)cc2)c2ccccc2)n1 (stereo not drawn) | 35.5 µM | > 100 µM | 50.7 µM | > 100 µM | 22.6 µM | 62.5 µM | 80.9 | > 100 | 45.5 µM | > 100 µM | 55.2 µM | > 100 µM | 72.1 µM | > 100 µM | 48.3 µM | > 100 µM | 62 | > 100 µM | 44.2 | > 100 µM |
| O=C(CN=Cc1cccs1)CSC(c1ccccc1)c1ccccc1 | 50.1 µM | > 100 µM | 17.5 µM | 47.9 µM | 22 µM | 55.5 µM | 26.1 | 97 | 34.5 µM | > 100 µM | 20.1 µM | 84.3 µM | 16.6 µM | 45.8 µM | 34 µM | > 100 µM | 20.7 | 51.1 µM | 19.6 | 49.4 µM |
| CCNC(=O)Oc1ccc(/C(=C(\C)c2ccc(Cl)cc2)c2ccc(OCCN3CCCCC3)cc2)cc1 | 6.04 µM | 20.9 µM | 3.38 µM | 11.3 µM | 1.87 µM | 3.8 µM | 3.62 | 17.2 | 4.19 µM | 14.5 µM | 1.34 µM | 10.2 µM | 13.7 µM | 27 µM | 10.9 µM | 23.7 µM | 2.7 | 9.25 µM | 1.78 | 3.9 µM |
| CC[C@@]1(OC(=O)CN(C)C)C(=O)OCc2c1cc1n(c2=O)Cc2cc3ccccc3nc2-1 | 0.0464 µM |  | 0.476 µM |  | 0.0424 µM | 0.574 µM and 0.559 µM | 3.53 | > 100 | < 0.0175 µM | 0.958 µM and 0.425 µM | 0.00498 µM and 0.0451 µM | 0.32 µM and 2.03 µM | 0.0851 µM | 0.984 µM and 0.317 µM | 0.0207 µM | 0.246 µM and 0.484 µM | 0.216 | 0.944 µM and 2.19 µM | 0.293 | 4.96 µM and 4.89 µM |
| CCOC(=O)C1=C(c2ccccc2)N(Cc2ccccc2)C2(O)C=CC(=O)C3C(=O)N(c4ccccc4)C(=O)C132 (stereo not drawn) | 2.56 µM | 8.08 µM | 2.67 µM | 9.32 µM | 1.92 µM | 4.04 µM | 3.46 | 18.3 | 1.51 µM | 2.93 µM | 1.67 µM | 4.44 µM | 1.62 µM | 3.12 µM | 1.65 µM | 3.92 µM | 2.03 | 5.54 µM | 1.79 | 3.34 µM |
| CCN(CC)CCOc1ccc(C2=C(c3ccccc3)CCc3cc(OC)ccc32)cc1 | 5.97 µM | 18 µM | 7.66 µM | > 51.1 µM | 1.88 µM | 3.82 µM | 3.72 | 10.9 | 2.29 µM | 7.07 µM | 0.811 µM | 6.86 µM | 4.23 µM | 9.44 µM | 6.69 µM | 17.5 µM | 3.64 | 10.9 µM | 1.69 | 3.41 µM |
| CCCCCCCCCCCCCCCCCC1=NC(C)(C)CN1CCO | 1.8 µM | 3.27 µM | 1.63 µM | 4.43 µM | 1.81 µM | 3.49 µM | 1.66 | 3.93 | 1.65 µM | 3.01 µM | 2.24 µM | 5.61 µM | 13.5 µM | 32.1 µM | 1.81 µM | 3.27 µM | 1.4 | 7.84 µM | 2.18 | 5.6 µM |
| C[C@]12CC[C@@H]3c4ccc(O)cc4CC[C@H]3[C@@H]1CC[C@@H]2NS(=O)(=O)c1ccc(-c2ccccc2)cc1 | 3.93 µM | > 100 µM | 3.18 µM | 48.9 µM | 3.46 µM | 12.9 µM | 7.37 | > 100 | 4 µM | 32.6 µM | 3.47 µM | 49 µM | 1.96 µM | 9.13 µM | 6.54 µM | > 100 µM | 2.09 | 9.68 µM | 3.01 | 12.6 µM |
| C=C(C)[C@@H]1CCC[C@]2(C(=O)O)CC[C@]3(C)[C@@H](CC[C@@H]4[C@@]5(C)C/C(=C/c6ccncc6)C(=O)C(C)(C)[C@@H]5CC[C@]43C)[C@@H]12 | 3.81 µM | 91 µM | 2.39 µM | 20.3 µM | 2.24 µM | 5.85 µM | 19.4 | > 100 | 2.14 µM | 7.38 µM | 3.98 µM | > 100 µM | 1.62 µM | 5.01 µM | 4.03 µM | 45.1 µM | 1.71 | 7.19 µM | 3.46 | 23.2 µM |
| CC1SC2(CCCCC2)N(NC(=O)c2[nH]c3ccc(F)cc3c2-c2ccccc2)C1=O (stereo not drawn) | 78.7 µM | > 100 µM | 41.2 µM | > 100 µM | > 100 µM | > 100 µM | 66.8 | > 100 | 48.5 µM | > 100 µM | > 100 µM | > 100 µM | > 100 µM | > 100 µM | > 100 µM | > 100 µM | 16.9 | 59.9 µM | 26.1 | > 100 µM |
| Nc1ccc2c(c1)CN1C(=O)c3ccccc3C1=N2 | 58.6 µM | 108 µM |  | > 125 µM |  | > 125 µM |  | > 76 | 35.7 µM | 121 µM |  | > 125 µM |  | 104 µM |  | > 125 µM | 47.9 | 110 µM |  | > 125 µM |
| CCCOc1c2cc(COC3OC(CO)C(O)C(O)C3O)cc1Cc1cc(COC3OC(CO)C(O)C(O)C3O)cc(c1OCCC)Cc1cc(COC3OC(CO)C(O)C(O)C3O)cc(c1OCCC)Cc1cc(COC3OC(CO)C(O)C(O)C3O)cc(c1OCCC)C2 (stereo not drawn) | > 100 µM and 80.4 µM and 17.5 µM | > 100 µM and 33.3 µM | > 100 µM and 17.2 µM | > 100 µM and 46.2 µM | 61.1 µM and 56.1 µM and 16.2 µM | > 100 µM and 32.4 µM |  | > 100 | 49.3 µM and 48.5 µM and 16.6 µM | > 100 µM and 31.6 µM | 34.3 µM and 69.9 µM and 29 µM | > 100 µM | 88.4 µM and > 100 µM and 16.3 µM | > 100 µM and 42.5 µM | > 100 µM and 35.1 µM | > 100 µM |  | > 100 µM |  | > 100 µM |
| O=[N+]([O-])O.[NH-]C1CCCCC1[NH-].[NH-]C1CCCCC1[NH-].[NH-]C1CCCCC1[NH-].[OH-].[OH-].[OH-].[Pt+4].[Pt+4].[Pt+4] (stereo not drawn) | 0.791 µM | > 50.2 µM | 0.756 µM | 40.9 µM | 0.918 µM | 11.9 µM | 12.1 | > 61.9 | 0.513 µM | 38.1 µM | 1.08 µM | > 83.9 µM | 0.278 µM | 35.1 µM | 1.35 µM | 50 µM | 8.21 | > 61.2 µM | 0.199 | 2.7 µM |
| O=C(NO)C(O)C(O)C(O)C(O)CO (stereo not drawn) | > 100 µM | > 100 µM | > 100 µM | > 100 µM | > 100 µM | > 100 µM | > 100 | > 100 | > 100 µM | > 100 µM | > 100 µM | > 100 µM | > 100 µM | > 100 µM | 40 µM and > 100 µM | > 100 µM | > 100 | > 100 µM | > 100 | > 100 µM |
| CC(C)(C)NCCC(O)c1cc(C(F)(F)F)nc2c(C(F)(F)F)cccc12 (stereo not drawn) |  | 24.2 µM |  | 20.6 µM |  | 19.4 µM |  | 34.4 |  | 20.2 µM |  | 30.9 µM |  | 28.3 µM |  | 6.17 µM |  | 26.2 µM |  | 27.2 µM |
| O=C(CC(C(=O)O)N1CCOCC1)c1ccccc1 (stereo not drawn) |  | 44.6 µM |  | 36 µM |  | 30.8 µM |  | 88.9 |  | 30.9 µM |  | > 100 µM |  | 63 µM |  | 69.4 µM |  | 38 µM |  | 34 µM |
| CC(C)(C)c1ccc(S(=O)(=O)N[C@H]2CC[C@H]3[C@@H]4CCc5cc(O)ccc5[C@H]4CC[C@]23C)cc1 | 3.94 µM | 14 µM | 2.1 µM | 7.57 µM | 2.02 µM | 4.04 µM | 2.39 | 6.98 | 1.89 µM | 4.45 µM | 2.59 µM | 8.76 µM | 1.31 µM | 2.72 µM | 3.93 µM | 12.9 µM | 1.53 | 4.2 µM | 2.78 | 7.13 µM |
